The text below walks through data of PMC3079629, “Cloning and characterization of a 9-lipoxygenase gene induced by pathogen attack from Nicotiana benthamiana for biotechnological application” (BMC Biotechnology, 2011).

The test concerns the target T1, Nb-9-LOX (Nicotiana benthamiana, UniProt R4S2V6).
T1 construct: protein starts MSLEKI, ends NSVSI (from primers)
T1 sequence (R4S2V6 1-862): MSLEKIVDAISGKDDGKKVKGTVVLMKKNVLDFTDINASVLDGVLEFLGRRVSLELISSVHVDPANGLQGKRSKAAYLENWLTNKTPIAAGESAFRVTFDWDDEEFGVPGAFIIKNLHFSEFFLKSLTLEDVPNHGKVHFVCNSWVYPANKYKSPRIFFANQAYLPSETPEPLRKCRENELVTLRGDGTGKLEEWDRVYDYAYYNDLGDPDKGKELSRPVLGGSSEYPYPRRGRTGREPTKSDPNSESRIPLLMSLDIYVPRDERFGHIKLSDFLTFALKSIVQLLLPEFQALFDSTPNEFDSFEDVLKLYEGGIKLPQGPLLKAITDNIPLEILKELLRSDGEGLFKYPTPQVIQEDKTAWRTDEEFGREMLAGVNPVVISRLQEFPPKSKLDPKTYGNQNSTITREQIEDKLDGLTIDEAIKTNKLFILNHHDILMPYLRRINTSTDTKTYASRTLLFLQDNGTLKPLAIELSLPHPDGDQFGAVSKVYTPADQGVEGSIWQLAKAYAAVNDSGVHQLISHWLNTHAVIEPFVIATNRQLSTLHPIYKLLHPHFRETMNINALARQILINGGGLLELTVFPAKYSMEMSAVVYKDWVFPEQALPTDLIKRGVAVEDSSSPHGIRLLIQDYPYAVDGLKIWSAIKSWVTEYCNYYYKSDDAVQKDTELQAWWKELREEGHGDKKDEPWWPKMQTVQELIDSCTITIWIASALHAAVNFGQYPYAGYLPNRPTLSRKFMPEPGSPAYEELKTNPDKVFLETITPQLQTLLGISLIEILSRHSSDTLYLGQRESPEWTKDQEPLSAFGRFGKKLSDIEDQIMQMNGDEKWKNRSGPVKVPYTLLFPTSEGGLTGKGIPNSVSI
In words: spectrophotometry at […] nm, conjugated diene formation, crude yeast extract. The class given is biochemical. As to conditions: 50 mM sodium phosphate; pH 6.0 presumed for the Km (used after the optimum was found); room temperature; O2.

For `CCCCC/C=C\C/C=C\CCCCCCCC(=O)O` [linoleic acid], the Km (commonly the substrate concentration at which the rate is half of its maximum) worked out at 3.9 µM.
